Data: the NIST ThermoML archive (doi:10.1016/j.jct.2017.01.019)
± gives the expanded uncertainty stated by the source.

Details: Liquid, Closed cell (Static) method

## FCC(F)(F)F [1,1,1,2-tetrafluoroethane]
243.15 K
  vapor or sublimation pressure: 84.5 ± 1.6 kPa
248.15 K
  vapor or sublimation pressure: 106.4 ± 1.6 kPa
253.15 K
  vapor or sublimation pressure: 132.7 ± 1.6 kPa
258.15 K
  vapor or sublimation pressure: 163.9 ± 1.6 kPa
263.15 K
  vapor or sublimation pressure: 200.6 ± 1.6 kPa
268.15 K
  vapor or sublimation pressure: 243.3 ± 1.6 kPa
273.15 K
  vapor or sublimation pressure: 292.7 ± 1.7 kPa
278.15 K
  vapor or sublimation pressure: 349.6 ± 1.7 kPa
283.15 K
  vapor or sublimation pressure: 414.3 ± 1.7 kPa
288.15 K
  vapor or sublimation pressure: 488.2 ± 1.8 kPa
293.15 K
  vapor or sublimation pressure: 570.7 ± 1.8 kPa

## N [ammonia]
243.15 K
  vapor or sublimation pressure: 119.7 ± 1.6 kPa
248.15 K
  vapor or sublimation pressure: 151.7 ± 1.6 kPa
253.15 K
  vapor or sublimation pressure: 190.2 ± 1.6 kPa
258.15 K
  vapor or sublimation pressure: 236.4 ± 1.6 kPa
263.15 K
  vapor or sublimation pressure: 290.7 ± 1.7 kPa
268.15 K
  vapor or sublimation pressure: 354.8 ± 1.7 kPa
273.15 K
  vapor or sublimation pressure: 429.3 ± 1.7 kPa
278.15 K
  vapor or sublimation pressure: 515.5 ± 1.8 kPa
283.15 K
  vapor or sublimation pressure: 615.1 ± 1.8 kPa
288.15 K
  vapor or sublimation pressure: 728.5 ± 1.9 kPa
293.15 K
  vapor or sublimation pressure: 857.1 ± 2 kPa
